Tests used:
[1] = tested on: Malme-3M; assay: Inhibition of basal ERK phosphorylation in Malme-3M cells; type: functional, Homo sapiens
[2] = tested on: Malme-3M; assay: Inhibition of cellular viability of Malme-3M cells; type: functional, Homo sapiens

For `COc1ncc(C(=O)NOCCO)c(Nc2ccc(Br)cc2F)c1Cl`, the Activity [1] was over 10000 nM and the Activity [2] was over 5000 nM.
`Cn1cc(C(=O)NOCC2CC2)c(Nc2ccc(Br)cc2F)c(F)c1=O` was tested, and the Activity [1] was 3.4 nM and the Activity [2] was 22 nM.
In the case of `CNC(=O)c1cn(C)c(=O)c(F)c1Nc1ccc(Br)cc1F`, the Activity [1] is reported as 68 nM and the Activity [2] is reported as 405 nM.
`Cn1cc(C(=O)NOCCO)c(Nc2ccc(Br)cc2F)c(F)c1=O` was tested, and the Activity [1] was 22 nM and the Activity [2] was 115 nM.
Work on `Cn1cc(C(=O)NOCC2CC2)c(Nc2ccc(Br)cc2F)c(Cl)c1=O` yielded an Activity [1] of 27 nM and an Activity [2] of 195 nM.
In the case of `CONC(=O)c1cn(C)c(=O)c(F)c1Nc1ccc(Br)cc1F`, the Activity [1] is reported as 22 nM and the Activity [2] is reported as 145 nM.
In the case of `Cn1cc(C(=O)NOCCO)c(Nc2ccc(Br)cc2F)c(Cl)c1=O`, the Activity [1] is reported as 26 nM and the Activity [2] is reported as 175 nM.
`Cc1c(Nc2ccc(Br)cc2F)c(C(=O)NOCC2CC2)cn(C)c1=O` was tested, and the Activity [1] was 7.5 nM and the Activity [2] was 46 nM.
